Test results from US20100099132A1, “BACTERIAL GROWTH INDUCER” (priority 2007, published 2010).

Assays:
E. coli = settings: serum-based media; Table 2, prior art WO 98/53047; cited from earlier work
H. alvei = experiment: Effect of additions on synthesis of BuGro activity by H. alvei in M9 minimal media; format: cell-based, Hafnia alvei; settings: added at inoculum stage to H. alvei M9 culture: 5% supernatant (approx. 50 units/ml) or 100 μM norepinephrine; listed as NE
Procedure: Therefore, H. alvei was inoculated at 2×10^6 CFU/ml into M9 minimal media supplemented with 0.4% (w/v) glucose only (ie no addition, N/A), or with 5% culture supernatant from a previous H. alvei M9 culture (approximately 50 units/ml) (HA), or with 100 μM norepinephrine (NE). The cultures were incubated at 37° C. in a rotatory shaking incubator for 18 hrs (final cell density: 2.17, 2.32 and 2.39×10^8 CFU/ml). Bacteria were removed by centrifugation at 10,000 g for 15 minutes, and the resulting culture supernatant was sterilised by passage through a 0.2 micron stericup filter. The sterile supernatant was assayed at various volumes using test strain E. coli E2348/69 inoculated at 10^2 CFU/ml into serum-SAPI media and incubated statically for 17 hrs at 37° C. in a humidified CO2 incubator. Growth levels were measured using Luria agar and pour plate analysis.

[1] = Stability (heat, lyophilisation, storage, enzymes, pH); format: physicochemical
Procedure: BuGro™ and the individual activity Peaks 1, 2 and 3 are each stable to 60 minutes boiling when in a heat-stable buffer such as 50 mM Tris-HCl, pH 7.5 or phosphate buffered saline (PBS). All are fully stable to lyophilisation, and if maintained in a lyophilised form, crude BuGro™ is 90-95% stable to storage at 4° C. for at least 2 years.

Row | Compound | effect on Bacxell synthesis (E. coli) | effect on synthesis of BuGro activity (H. alvei) | stability once synthesised in minimal media such as M9 [1]
1 | NC[C@H](O)c1ccc(O)c(O)c1 [norepinephrine] | 4. Induced by norepinephrine, but also | not induced | 
2 | O=C(N[C@H]1COC(=O)[C@@H](NC(=O)c2cccc(O)c2O)COC(=O)[C@@H](NC(=O)c2cccc(O)c2O)COC1=O)c1cccc(O)c1O [enterobactin] |  |  | highly unstable
